Test results reported in PubChem BioAssay AID1919015 (Molecular Pharmacology Branch, DTP, NCI, 2023).

Test system: OVCAR-5 complex spheroids with HUVEC/MSC, viability, % test/control
Test: Anticancer human tumor OVCAR-5 cell line growth inhibition [AhR];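 note: spheroids exposed to compounds for 7 days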;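 for viability, T/C: 100% = DMSO vehicle control wells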
Conditions: for IC50: curve of first compound; for viability, T/C: stronger effect = lower value
Method in brief: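 Agents were dosed in half-log steps down from roughly clinical Cmax, or from 10 microM where Cmax was unknown, alone and with AhR antagonists. Read-out: percent test/control growth of tumor spheroids containing HUVEC and MSC stromal cells.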

[1] = second compound 0.1 µM, first compound 0.0316 µM
[2] = second compound 0.1 µM, first compound 0.1 µM
[3] = second compound 0.1 µM, first compound 0.316 µM
[4] = second compound 0.1 µM, first compound 1 µM
[5] = second compound 0.1 µM, first compound 3.16 µM
[6] = second compound 0.1 µM, first compound 10 µM
[7] = second compound 0.316 µM, first compound 0.0316 µM
[8] = second compound 0.316 µM, first compound 0.1 µM
[9] = second compound 0.316 µM, first compound 0.316 µM
[10] = second compound 0.316 µM, first compound 1 µM
[11] = second compound 0.316 µM, first compound 3.16 µM
[12] = second compound 0.316 µM, first compound 10 µM
[13] = second compound 1 µM, first compound 0.0316 µM
[14] = second compound 1 µM, first compound 0.1 µM
[15] = second compound 1 µM, first compound 0.316 µM
[16] = second compound 1 µM, first compound 1 µM
[17] = second compound 1 µM, first compound 3.16 µM
[18] = second compound 1 µM, first compound 10 µM
[19] = second compound 3.16 µM, first compound 0.0316 µM
[20] = second compound 3.16 µM, first compound 0.1 µM
[21] = second compound 3.16 µM, first compound 0.316 µM
[22] = second compound 3.16 µM, first compound 1 µM
[23] = second compound 3.16 µM, first compound 3.16 µM
[24] = second compound 3.16 µM, first compound 10 µM
[25] = second compound 10 µM, first compound 0.0316 µM
[26] = second compound 10 µM, first compound 0.1 µM
[27] = second compound 10 µM, first compound 0.316 µM
[28] = second compound 10 µM, first compound 1 µM
[29] = second compound 10 µM, first compound 3.16 µM
[30] = second compound 10 µM, first compound 10 µM

Structure (SMILES): CC(C)CC(NC(=O)C(Cc1ccccc1)NC(=O)c1cnccn1)B(O)O (stereo not given) + Cc1ccccc1N=Nc1ccc(NC(=O)c2ccnn2C)c(C)c1
- IC50 (second compound 0.1 µM): 49.4 nM
- IC50 (second compound 0.316 µM): 48.2 nM
- IC50 (second compound 1 µM): 50 nM
- IC50 (second compound 3.16 µM): 48.2 nM
- IC50 (second compound 10 µM): 55.4 nM
- viability, T/C (second compound 0.1 µM, first compound 0.000949 µM): 101%
- viability, T/C (second compound 0.1 µM, first compound 0.003 µM): 105%
- viability, T/C (second compound 0.1 µM, first compound 0.00949 µM): 96.9%
- viability, T/C (second compound 0.1 µM, first compound 0.03 µM): 69%
- viability, T/C (second compound 0.1 µM, first compound 0.0949 µM): 25%
- viability, T/C (second compound 0.1 µM, first compound 0.3 µM): 19.3%
- viability, T/C (second compound 0.316 µM, first compound 0.000949 µM): 104%
- viability, T/C (second compound 0.316 µM, first compound 0.003 µM): 108%
- viability, T/C (second compound 0.316 µM, first compound 0.00949 µM): 98.7%
- viability, T/C (second compound 0.316 µM, first compound 0.03 µM): 67.1%
- viability, T/C (second compound 0.316 µM, first compound 0.0949 µM): 25.7%
- viability, T/C (second compound 0.316 µM, first compound 0.3 µM): 17.6%
- viability, T/C (second compound 1 µM, first compound 0.000949 µM): 108%
- viability, T/C (second compound 1 µM, first compound 0.003 µM): 112%
- viability, T/C (second compound 1 µM, first compound 0.00949 µM): 101%
- viability, T/C (second compound 1 µM, first compound 0.03 µM): 69.4%
- viability, T/C (second compound 1 µM, first compound 0.0949 µM): 25.5%
- viability, T/C (second compound 1 µM, first compound 0.3 µM): 19.6%
- viability, T/C (second compound 3.16 µM, first compound 0.000949 µM): 111%
- viability, T/C (second compound 3.16 µM, first compound 0.003 µM): 112%
- viability, T/C (second compound 3.16 µM, first compound 0.00949 µM): 105%
- viability, T/C (second compound 3.16 µM, first compound 0.03 µM): 66.1%
- viability, T/C (second compound 3.16 µM, first compound 0.0949 µM): 26.9%
- viability, T/C (second compound 3.16 µM, first compound 0.3 µM): 21.5%
- viability, T/C (second compound 10 µM, first compound 0.000949 µM): 98.9%
- viability, T/C (second compound 10 µM, first compound 0.003 µM): 105%
- viability, T/C (second compound 10 µM, first compound 0.00949 µM): 93.6%
- viability, T/C (second compound 10 µM, first compound 0.03 µM): 73.2%
- viability, T/C (second compound 10 µM, first compound 0.0949 µM): 29.3%
- viability, T/C (second compound 10 µM, first compound 0.3 µM): 23.5%

Structure (SMILES): COc1cc(Nc2ncc3c(n2)-c2ccc(Cl)cc2C(c2c(F)cccc2OC)=NC3)ccc1C(=O)O + Cc1ccccc1N=Nc1ccc(NC(=O)c2ccnn2C)c(C)c1
- IC50 (second compound 0.1 µM): 2340 nM
- IC50 (second compound 0.316 µM): 2970 nM
- IC50 (second compound 1 µM): 4990 nM
- IC50 (second compound 3.16 µM): 6140 nM
- IC50 (second compound 10 µM): 6340 nM
- viability, T/C [1]: 89.5%
- viability, T/C [2]: 81.7%
- viability, T/C [3]: 60.2%
- viability, T/C [4]: 57.2%
- viability, T/C [5]: 50.3%
- viability, T/C [6]: 42%
- viability, T/C [7]: 89.4%
- viability, T/C [8]: 86.8%
- viability, T/C [9]: 64.2%
- viability, T/C [10]: 59.5%
- viability, T/C [11]: 52.3%
- viability, T/C [12]: 41.7%
- viability, T/C [13]: 91.2%
- viability, T/C [14]: 87.8%
- viability, T/C [15]: 68.5%
- viability, T/C [16]: 64.4%
- viability, T/C [17]: 55.4%
- viability, T/C [18]: 43.7%
- viability, T/C [19]: 97.6%
- viability, T/C [20]: 91.3%
- viability, T/C [21]: 74.8%
- viability, T/C [22]: 68.1%
- viability, T/C [23]: 54.5%
- viability, T/C [24]: 46.2%
- viability, T/C [25]: 93.3%
- viability, T/C [26]: 86.4%
- viability, T/C [27]: 74.2%
- viability, T/C [28]: 67.2%
- viability, T/C [29]: 54.7%
- viability, T/C [30]: 46.6%

Structure (SMILES): O=C(C=Cc1cccc(S(=O)(=O)Nc2ccccc2)c1)NO + Cc1ccccc1N=Nc1ccc(NC(=O)c2ccnn2C)c(C)c1
- IC50 (second compound 0.1 µM): 1100 nM
- IC50 (second compound 0.316 µM): 1080 nM
- IC50 (second compound 1 µM): 1180 nM
- IC50 (second compound 3.16 µM): 1030 nM
- IC50 (second compound 10 µM): 1060 nM
- viability, T/C [1]: 100%
- viability, T/C [2]: 89.7%
- viability, T/C [3]: 76.1%
- viability, T/C [4]: 53%
- viability, T/C [5]: 24.8%
- viability, T/C [6]: 5.54%
- viability, T/C [7]: 101%
- viability, T/C [8]: 97.2%
- viability, T/C [9]: 77.2%
- viability, T/C [10]: 54.2%
- viability, T/C [11]: 21.3%
- viability, T/C [12]: 5.42%
- viability, T/C [13]: 103%
- viability, T/C [14]: 97.4%
- viability, T/C [15]: 84.8%
- viability, T/C [16]: 54.1%
- viability, T/C [17]: 22.6%
- viability, T/C [18]: 5.11%
- viability, T/C [19]: 103%
- viability, T/C [20]: 99.3%
- viability, T/C [21]: 81%
- viability, T/C [22]: 50.2%
- viability, T/C [23]: 21.6%
- viability, T/C [24]: 5.09%
- viability, T/C [25]: 93.4%
- viability, T/C [26]: 96.2%
- viability, T/C [27]: 76.2%
- viability, T/C [28]: 52%
- viability, T/C [29]: 22.3%
- viability, T/C [30]: 5.86%
